Measurements taken from US20240269298A1, “PHOSPHONYL DERIVATIVE, AND COMPOSITION AND PHARMACEUTICAL APPLICATION THEREOF” (XIZANG HAISCO PHARMACEUTICAL CO., LTD., priority 2021, published 2024).
Like-named read-outs stand apart in the source and are kept apart here.

Key:
A431 (EGFR-WT) cells = test: Inhibitory activity on proliferation of A431 (EGFR-WT) cells (CTG, 72 h); assay type: cell-based; settings: Homo sapiens, A-431
Protocol: NCI-H1975 (EGFR-L858R-T790M) and A431 (EGFR-WT) cells were purchased from ATCC and cultured in an incubator at 37° C. with 5% CO2, and the culture mediums were RPMI1640+10% FBS and DMEM+10% FBS, respectively. On the first day, NCI-H1975 (EGFR-L858R-T790M) and A431 (EGFR-WT) cells in the logarithmic phase were collected, and viable cells were counted using an automatic cell analyzer (countstar). The cell suspensions were adjusted with the culture mediums and plated on a 96-well cell culture plate at 1000 cells/well for NCI-H1975 (EGFR-L858R-T790M) cells and at 3000 cells/well for A431 cells. The next day, the culture mediums were aspirated, and 90 μL of fresh culture mediums and 10 μL of the compounds at different concentrations were added to each well, wherein the final concentration of DMSO in each well was 0.1%. The plate was cultured in the incubator at 37° C. with 5% CO2 for 72 hours. After 72 hours of drug treatment, 50 μL of CTG solution (promega, G7572), which was already pre-melted and equilibrated to room temperature, was added to each well, and the mixtures were uniformly mixed for 2 min using a microplate shaker. The plate was placed at room temperature for 10 min, and then […] signal values were measured using a microplate reader (PHERAstar FSX).
Surviving cells % was calculated based on Vsample/Vvehicle control×100%, wherein Vsample was the readout of the drug-treated group, and Vvehicle control was the average value of the vehicle control group. Using the origin 9.2 software and nonlinear regression model, S-shaped dose-survival curves were plotted, and IC50 values were calculated.

[1] = system: NCI-H1975 (EGFR-L858R-T790M) cells; test: Inhibitory activity on proliferation of NCI-H1975 (EGFR-L858R-T790M) cells (CTG, 72 h); assay type: cell-based; settings: Homo sapiens
Procedure, shortened: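 IC50 values come from S-shaped dose-survival fits of CTG signal expressed as % of vehicle. Compound exposure lasted 72 h at 37 °C with 0.1% DMSO; seeding was 3000 A431 cells/well in DMEM+10% FBS and 1000 NCI-H1975 cells/well in RPMI1640+10% FBS.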

[2] = read-out: IC50 (value in brackets)

IC50 (A431 (EGFR-WT) cells)	IC50 ([1]; read-out: IC50 (class symbol))	IC50 [1, 2]	Structure (SMILES)
≥ 10 µM	< 0.1 µM	0.043 µM	COc1cc(N2CCC(CN3CCCC4(CCN(c5ccc6c(c5)C(=O)N(C5CCC(=O)NC5=O)C6=O)CC4)C3)CC2)c(-c2cnn(C)c2)cc1Nc1ncc(Cl)c(Nc2ccc3nccnc3c2P(C)(C)=O)n1 (centres unmarked) [Compound 1, 5-(2-((1-(4-((5-chloro-4-((5-(dimethylphosphoryl)quinoxalin-6-yl)amino)pyrimidin-2-yl)amino)-5-methoxy-2-(1-methyl-1H-pyrazol-4-yl)phenyl)piperidin-4-yl)methyl)-2,9-diazaspiro[5.5]undecan-9-yl)-2-(2,6-dioxopiperidin-3-yl)isoindoline-1,3-dione]
≥ 10 µM	< 0.1 µM	0.021 µM	COc1cc(N2CCC(N3CCN(CC4CCN(c5ccc6c(c5)C(=O)N(C5CCC(=O)NC5=O)C6=O)CC4)CC3)CC2)c(-c2cnn(C)c2)cc1Nc1ncc(Cl)c(Nc2ccc3nccnc3c2P(C)(C)=O)n1 (centres unmarked) [Compound 4, 5-(4-((4-(1-(4-((5-chloro-4-((5-(dimethylphosphoryl)quinoxalin-6-yl)amino)pyrimidin-2-yl)amino)-5-methoxy-2-(1-methyl-1H-pyrazol-4-yl)phenyl)piperidin-4-yl)piperazin-1-yl)methyl)piperidin-1-yl)-2-(2,6-dioxopiperidin-3-yl)isoindoline-1,3-dione]
≥ 10 µM	–	–	COc1cc(N2CCC(CN3CC4CN(c5ccc6c(c5)C(=O)N(C5CCC(=O)NC5=O)C6=O)CC4C3)CC2)c(C2CC2)cc1Nc1ncc(Br)c(Nc2ccc3nccnc3c2P(C)(C)=O)n1 (centres unmarked) [Compound 34, 5-(5-((1-(4-((5-bromo-4-((5-(dimethylphosphoryl)quinoxalin-6-yl)amino)pyrimidin-2-yl)amino)-2-cyclopropyl-5-methoxyphenyl)piperidin-4-yl)methyl)hexahydropyrrolo[3,4-c]pyrrol-2(1H)-yl)-2-(2,6-dioxopiperidin-3-yl)isoindoline-1,3-dione]
≥ 10 µM	–	–	COc1cc(N2CCC(N3CCN(c4ccc(N5CCC(=O)NC5=O)cc4)CC3)CC2)c(-c2cnn(C)c2)cc1Nc1ncc(Cl)c(Nc2ccc(C3CC3)cc2P(C)(C)=O)n1 [Compound 133, 1-(4-(4-(1-(4-((5-chloro-4-((4-cyclopropyl-2-(dimethylphosphoryl)phenyl)amino)pyrimidin-2-yl)amino)-5-methoxy-2-(1-methyl-1H-pyrazol-4-yl)phenyl)piperidin-4-yl)piperazin-1-yl)phenyl)dihydropyrimidine-2,4(1H,3H)-dione]
≥ 10 µM	–	–	COc1cc(N2CCC(N3CCN(c4ccc(N5CCC(=O)NC5=O)cc4)CC3)CC2)c(-c2cnn(C)c2)cc1Nc1ncc(Cl)c(Nc2ccc(-c3ccccc3)cc2P(C)(C)=O)n1 [Compound 137, 1-(4-(4-(1-(4-((5-chloro-4-((3-(dimethylphosphoryl)-[1,1′-biphenyl]-4-yl)amino)pyrimidin-2-yl)amino)-5-methoxy-2-(1-methyl-1H-pyrazol-4-yl)phenyl)piperidin-4-yl)piperazin-1-yl)phenyl)dihydropyrimidine-2,4(1H,3H)-dione]
≥ 10 µM	–	–	COc1cc(N2CCC3(CCN(c4ccc5c(c4)C(=O)N(C4CCC(=O)NC4=O)C5=O)CC3)CC2)c(-c2cnn(C)c2)cc1Nc1ncc(Br)c(Nc2ccc(C3CC3)cc2P(C)(C)=O)n1 (centres unmarked) [Compound 165, 5-(9-(4-((5-bromo-4-((4-cyclopropyl-2-(dimethylphosphoryl)phenyl)amino)pyrimidin-2-yl)amino)-5-methoxy-2-(1-methyl-1H-pyrazol-4-yl)phenyl)-3,9-diazaspiro[5.5]undecan-3-yl)-2-(2,6-dioxopiperidin-3-yl)isoindoline-1,3-dione]
≥ 10 µM	–	–	COc1cc(N2CCN(c3ccc4c(c3)C(=O)N(C3CCC(=O)NC3=O)C4=O)CC2)c(-c2cnn(C)c2)cc1Nc1ncc(Cl)c(Nc2ccc(C3CC3)cc2P(C)(C)=O)n1 (centres unmarked) [Compound 167, 5-(4-(4-((5-chloro-4-((4-cyclopropyl-2-(dimethylphosphoryl)phenyl)amino)pyrimidin-2-yl)amino)-5-methoxy-2-(1-methyl-1H-pyrazol-4-yl)phenyl)piperazin-1-yl)-2-(2,6-dioxopiperidin-3-yl)isoindoline-1,3-dione]
